Reference: patent EP0035412A1, “Amidotetrazole compounds and processes for their preparation” (GLAXO GROUP LIMITED, priority 1980, dated 1981)

Tests used:
Type in all cases: in vivo
[1] = tested on: rats with adjuvant arthritis; assay: Freund adjuvant arthritis test (anti-inflammatory activity); settings: arthritic score versus first score, suspended in gum acacia
Description: The anti-inflammatory activity was determined by the Freund adjuvant arthritis test (Pearson, C.M. Proc. Soc. Exp. Biol. Med 91, 95 1956) and analgesic activity was determined by applying an increasing pressure to the inflamed paw (Randall, L.O. Selitto, J.J., Arch. Int. Pharmacodyn, 111, 409 1957) and recording pain threshold.
The anti-inflammatory activity of the compounds was determined in rats with adjuvant arthritis (Pearson, C.M. Prod. Soc. Exp. Biol. Med., 91, 95, 1956) induced by intradermal,injection into the tail of 0.1 ml of a fine suspension of Mycobacterium butyricum in liquid paraffin (6 mg.ml^-1).
After 14 days, animals were chosen on the basis of their arthritic score and test compounds, suspended in gum acacia, were then orally administered once a day for 14 days. At the end of this period, animals were scored again and percentage inhibition versus first score was calculated. Comparisons with controls were performed by the Dunnett test. The following results were obtained for the compounds of the Examples: […]

Toxicity (oral LD50) = settings: in vivo, po; rat, orally
Description: (§1) The compounds are in general non-toxic at therapeutically active doses. For example, the compound of Example 1 has an LD50 value in the rat in excess of 3000 mg.kg ^-1 orally.

rat = assay: Toxicity (oral LD50); settings: result in words
Description: as §1

[2] = oral dose 50.0 mg.kg^-1 once a day for 14 days

With `COc1ccc2c(c1)c(CC(=O)Nc1nnnn1-c1ccccc1)c(C)n2C(=O)c1ccc(Cl)cc1` [Example 1, 1-Phenyl-5-[1-(4-chlorobenzoyl)-5-methoxy-2-methylindol-3-ylacetamido]tetrazole] the “% Inhibition” value ([1]; oral dose 6.25 mg.kg^-1 once a day for 14 days) was 59%, the LD50 (Toxicity (oral LD50)) was greater than 3000 mg/kg and the therapeutic index (rat) was “particularly advantageous”.
With `COc1ccc2c(c1)c(CC(=O)Nc1nnnn1-c1ccc(Cl)c(Cl)c1)c(C)n2C(=O)c1ccc(Cl)cc1` [Example 2, 1-(3,4-Dichlorophenyl)-5-[1-(4-chlorobenzoyl)-5-methoxy-2-methylindol-3-ylacetamido]tetrazole] the “% Inhibition” value [1, 2] was 40.3%.
In the case of `COc1ccc2c(c1)c(CC(=O)Nc1nnnn1-c1ccc([N+](=O)[O-])cc1)c(C)n2C(=O)c1ccc(Cl)cc1` [Example 3, 1-(4-Nitrophenyl)-5-[1-(4-chlorobenzoyl)-5-methoxy-2-methylindol-3-ylacetamido] tetrazole], the “% Inhibition” value ([1]; oral dose 10.0 mg.kg^-1 once a day for 14 days) is reported as 47.7%.
In the case of `COc1ccc2c(c1)c(CC(=O)Nc1nnnn1-c1ccc(N)cc1)c(C)n2C(=O)c1ccc(Cl)cc1` [Example 4], the “% Inhibition” value [1, 2] is reported as 44.8%.
